Several values for one entry are separate records, joined by “and”; a condition that tells them apart may be missing. Identical values can stand only once. Like-named read-outs stand apart in the source and are kept apart here. Each block holds one compound with its values, some of them ahead of it.
Key:
[1] = tested on: ID8 murine ovarian cancer cells; assay: cells
Procedure: (§1) Drug Titrations: TAXOL was titered to determine the concentrations used in combination with AMD3100. Cells were cultured in 96-well black assay plates with optically clear bottoms (500 and 2500 cells per well were tested), including a standard curve plate. ID8 cells were then exposed to increasing concentrations of paclitaxel (1, 0.5, 0.15, 0.05, 0.015, and 0.005 μM), and TOV cells were exposed to 15, 5, and 1 nM Taxol for 48 or 96 hr. Proliferation was measured by measuring the amount of dsDNA using CyQuant reagent and read on a Perkin Elmer Envision 2103. AMD3100 (50, 25, 10, 5, 2.5, and 1 μM) was titered in the same manner. Each condition was done in triplicate. Drugs were not replenished during any of the experiments. Data was analyzed in Prism 7.
(§2) Simultaneous Delivery of Small Molecules and Chemotherapy: To determine the effect of AMD3100 alone or in combination with TAXOL, cell proliferation was measured by seeding 2500 TOV cells and 500 ID8 cell per well in a clear bottom 96-well black assay plates. AMD3100 (final concentrations: 10 μM for ID8 and 2.5 μM for TOV) and Paclitaxel (final concentrations: 15 and 5 nM for ID8 cells and 5 and 1 nM for TOV cells) were mixed with DMEM. 100 μL of the mixture was added to the cells. Each condition was done in triplicate. Plates were incubated at 37° C. with 5% CO2 for 72 hr (ID8) and 96 hr (TOV-112D). Standard curve plates were washed the same day the experiment was done. Plates were stored at −80° C. after washing and proliferation rate was measured then by CyQuant assay.

[2] = tested on: TOV-112D human ovarian cancer cells; assay: cells
Procedure: as §1
as §2, with “Plates were incubated at 37° C. with 5% CO2 for 72 hr (ID8) and 96 hr (TOV-112D).” left out

[3] = tested on: ID8 cells
Procedure: (§3) Sequential Delivery of Small Molecules and Chemotherapy: ID8 cells were exposed to AMD3100 in a 6 well plate (2.5×10^5 cells/well) for 72 hr. Cells were then washed and counted. Cell viability was checked by propidium iodide. For each condition, 500 cells per well of viable ID8 cells were then seeded into a 96 well black assay plate. ID8 cells were then incubated in DMEM containing a carrier, AMD3100 10 μM, TAXOL 0.005 μM, or both for another 72 hr. For TOV-112D cells, initial 72 hr incubation was with AMD3100 5 μM, followed by 96 hr incubation in media containing AMD3100 5 μM, TAXOL 1 nM, or both. At the conclusion of the experiment, plates were washed and dsDNA was measured via CyQuant assay.

[4] = tested on: TOV-112D cells
Procedure: as §3

[5] = tested on: ID8 cells; assay: Soft-agar colony formation, ID8; type: cell-based, murine
Procedure: (§4) ID8 and TOV Colony Formation in The Presence of Small Molecules and/or Chemotherapy: Bottom Layer Hard Agar: 2×DMEM and 0.8% agar stock was prepared and adjusted to 42° C. in a water bath for 30 min. The agar and 2×DMEM were mixed (1:2). 500 μL of the mixture was then added to each well of a 24 well plate, and the plate was rocked to distribute evenly and allowed to solidify at room temperature in a tissue culture hood. Upper Layer Soft Agar: 0.6% agar stock was prepared adjusted to 42° C. in a water bath for 30 min. During this time, ID8 cells were trypsinized, and 40,000 cells per mL suspension in 1×DMEM was made. Cell suspensions were then mixed with soft agar stock (1:2) and 500 μL of the mixture was then added to each well. Each condition was in triplicate.
(§5) Drug-DMEM stocks were made to achieve the proper concentrations in 1.1 mL, the total volume of each well: AMD3100 (10 μM and 1 μM for ID8 cells, 5 μM and 2.5 μM for TOV cells) and TAXOL (0.015 μM and 0.005 μM). 100 μL of each drug was added to the relative wells in triplicate. Plates were then incubated in a humidified incubator with […] for 20-30 days. At the end of the experiment, each well was stained with 0.005% crystal violet in 15% ethanol (140 μL per well) and plates were incubated again for several hours then photos were taken using a microscope. ID8 Colonies equal or bigger […] and TOV colonies equal or bigger than […] were counted using Image J software.

[6] = tested on: TOV-112D cells; assay: Soft-agar colony formation, TOV-112D; type: cell-based, human
Procedure: as §4
as §5, with “Drug-DMEM stocks were made to achieve the proper concentrations in 1.1 mL, the total volume of each well: AMD3100 (10 μM and 1 μM for ID8 cells, 5 μM and 2.5 μM for TOV cells) and TAXOL (0.015 μM and 0.005 μM).” left out

[7] = tested on: human ovarian cancer; settings: reported; read-out: IC50 of paclitaxel in human ovarian cancer; cited from earlier work
[8] = tested on: CXCL12; settings: for CXCL12 expression reduced by: 4 or 18 hours, normalized; for overall expression of CXCL12, significance of change: AMD3100 for either 4 or 18 hours
Procedure: (§6) CXCR4, CXCR7, and CXCL12 expression in ovarian cancer cells: ID8 or TOV-112D cells were plated at 750,000 cells/well in 6-well plates. Conditions were WT, WT+AMD3100 (10 μM for ID8/5 μM for TOV-112D, MedChemExpress HY-50912 and AbCam ab1207180) 16 hrs, and WT+AMD3100 4 hrs. 2× drug stocks were made in complete DMEM, final volume per well was 2 mL. GolgiPlug (BD Pharmingen) was added to all wells 3 hrs prior to harvesting according to manufacturer's protocol. CXCL12, CXCR4, and CXCR7 expression was measured by Flow Cytometry. Antibodies: anti-h/mCXCL12/SDF-1 APC (IC350A, RandD Systems), anti-mCXCR4/CD184 PE (551966, BD Bioscience), anti-hCXCR4/CD184 PE (306506, BioLegend), anti-h/mCXCR7 PE-Cy7 (331115, BioLegend).
(§7) Flow Cytometry: Cells were harvested using enzyme free dissociation buffer (Thermo Fisher Scientific 13151014) and counted using Trypan Blue viability dye (Corning). Equal numbers of cells were labeled with antibody for surface markers. Thereafter cells were stained for viability and where needed with secondary antibody. […] All incubation steps were performed at 4° C. on a rocker in the dark. Cells were washed 2× before analysis in cell staining buffer consisting of PBS containing 0.5% BSA, 0.02% Sodium Azide, and 2 mM EDTA. Analysis of samples in duplicate was done with a BD Fortessa collecting a minimum of 10,000 events per sample and using FlowJo software.

[9] = target: CXCR4 (Homo sapiens, UniProt P61073); settings: TOV-112D cells; for CXCR4 reduced by: AMD3100 5 μM, normalized
Procedure: as §6, §7

[10] = target: CXCR7 (Homo sapiens, UniProt P25106); settings: TOV-112D cells
Procedure: as §6, §7

[11] = target: CXCR7 (Mus musculus, UniProt P56485); settings: ID8 cells
Procedure: as §6, §7

[12] = tested on: 40L; assay: Survival in intraperitoneal malignant mesothelioma model, 40L; type: in vivo; settings: 40L model, C57BL/6 mice; IP once a week for four weeks; AMD3100 1 mg/kg, VIC-008 20 μg per mouse
Procedure: (§8) Intraperitoneal malignant mesothelioma (MM) models were established in immunocompetent C57BL/6 mice using syngeneic 40L and AE17 cell lines. Here, we tested the effect of AMD3100 and VIC-008, alone or in combination, on mouse survival in the mesothelioma-bearing mice. […], alone, was administered at 20 μg per mouse intraperitoneally (IP) once a week for four successive weeks. AMD3100 was administered at 1 mg/kg of mouse body weight via IP injection once a week for four successive weeks.

[13] = tested on: AE17; assay: Survival in intraperitoneal malignant mesothelioma model, AE17; type: in vivo; settings: C57BL/6 mice, IP once a week for four weeks, AMD3100 1 mg/kg, VIC-008 20 μg per mouse
Procedure: as §8

[14] = target: CXCR4 (Mus musculus, UniProt P70658); settings: ID8 cells; for expression of CXCR4 reduced by: AMD3100 10 μM, normalized, negative control 0, untreated 100
[15] = tested on: ID8-Luc cells; settings: C57/B6 mice, 1 mg/kg IP every 72 hours (subtherapeutic)
Procedure: Six- to eight-week old C57/B6 mice were injected with 5e6 ID8-Luc cells. The presence of the tumor was confirmed by luciferase imaging. The tumor bearing mice were treated with 1 mg/kg AMD-3100 by intraperitoneal (IP) injection every 72 hours or with TAXOL® (10 mg/ml).
Six- to eight-week old C57/B16 mice were injected with 5e6 ID8-Luc cells. The presence of the tumor was confirmed by luciferase imaging. The tumor bearing mice were treated with 1 mg/kg AMD-3100 by IP injection every 72 hours. In the combination treatment, the AMD3100 (1 mg/kg) and ruxolitinib (30 mg/kg) were administered concurrently but not simultaneously (i.e., administration was staggered).

[16] = AMD3100 for either 4 or 18 hours

Sequence of CXCR4 (Mus musculus, UniProt P70658) (P70658 whole entry): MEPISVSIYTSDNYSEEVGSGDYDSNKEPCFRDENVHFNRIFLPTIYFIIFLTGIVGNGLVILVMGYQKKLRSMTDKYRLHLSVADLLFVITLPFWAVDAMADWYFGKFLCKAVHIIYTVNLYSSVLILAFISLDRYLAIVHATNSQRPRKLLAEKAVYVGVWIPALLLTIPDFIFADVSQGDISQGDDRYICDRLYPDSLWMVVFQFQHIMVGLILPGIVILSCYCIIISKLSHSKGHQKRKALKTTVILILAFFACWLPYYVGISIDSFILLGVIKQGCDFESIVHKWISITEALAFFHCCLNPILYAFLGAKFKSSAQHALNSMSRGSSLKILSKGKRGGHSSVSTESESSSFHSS
Sequence of CXCR4 (Homo sapiens, UniProt P61073) (P61073 whole entry): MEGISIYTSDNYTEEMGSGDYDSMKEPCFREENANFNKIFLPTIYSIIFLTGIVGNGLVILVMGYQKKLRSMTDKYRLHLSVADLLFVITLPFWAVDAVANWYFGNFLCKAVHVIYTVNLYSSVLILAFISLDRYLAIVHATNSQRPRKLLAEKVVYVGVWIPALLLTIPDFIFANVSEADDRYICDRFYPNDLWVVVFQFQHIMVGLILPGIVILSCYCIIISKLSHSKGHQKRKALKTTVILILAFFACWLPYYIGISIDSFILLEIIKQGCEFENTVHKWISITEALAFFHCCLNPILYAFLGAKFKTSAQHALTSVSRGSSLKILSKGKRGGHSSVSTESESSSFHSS
Sequence of CXCR7 (Homo sapiens, UniProt P25106) (P25106 whole entry): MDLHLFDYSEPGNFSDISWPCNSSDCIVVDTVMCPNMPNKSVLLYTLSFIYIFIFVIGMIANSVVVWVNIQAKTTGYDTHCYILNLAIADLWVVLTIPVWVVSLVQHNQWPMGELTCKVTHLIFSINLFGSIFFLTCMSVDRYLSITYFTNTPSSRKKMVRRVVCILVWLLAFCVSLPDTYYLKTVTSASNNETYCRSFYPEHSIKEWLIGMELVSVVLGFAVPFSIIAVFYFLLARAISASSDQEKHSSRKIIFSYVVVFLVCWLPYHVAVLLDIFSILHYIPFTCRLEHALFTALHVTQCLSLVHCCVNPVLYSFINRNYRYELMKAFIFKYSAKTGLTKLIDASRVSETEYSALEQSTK
Sequence of CXCR7 (Mus musculus, UniProt P56485) (P56485 whole entry): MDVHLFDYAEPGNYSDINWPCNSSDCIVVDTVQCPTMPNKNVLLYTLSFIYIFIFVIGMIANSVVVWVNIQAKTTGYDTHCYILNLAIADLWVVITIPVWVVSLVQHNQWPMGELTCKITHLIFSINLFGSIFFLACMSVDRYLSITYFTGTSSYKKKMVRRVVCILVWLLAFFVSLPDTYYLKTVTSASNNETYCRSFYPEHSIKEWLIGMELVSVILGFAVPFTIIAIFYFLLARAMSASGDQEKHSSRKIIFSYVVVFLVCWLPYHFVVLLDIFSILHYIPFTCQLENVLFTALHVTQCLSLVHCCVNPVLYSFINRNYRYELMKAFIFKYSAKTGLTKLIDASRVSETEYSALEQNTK

- IC50 ([1]; Mus musculus, ID8, 72 h, read-out: IC50, ID8 cell proliferation): 5 nM
- IC50 ([1]; Mus musculus, read-out: IC50, ID8 murine ovarian cancer cells): 5 nM
- IC50 ([2]; Homo sapiens, TOV112D, read-out: IC50, human ovarian cancer cells (TOV)): 2.5 nM
Compound: CC(=O)O[C@H]1C(=O)[C@@]2(C)[C@H]([C@H](OC(=O)c3ccccc3)[C@]3(O)C[C@H](OC(=O)[C@H](O)[C@@H](NC(=O)c4ccccc4)c4ccccc4)C(C)=C1C3(C)C)[C@]1(OC(C)=O)CO[C@@H]1C[C@@H]2O [TAXOL, Paclitaxel]
- inhibition at 0.005 µM ([1]; Mus musculus, ID8, read-out: proliferation inhibition): 50%
- inhibition at 0.005 µM ([2]; Homo sapiens, TOV112D, read-out: proliferation inhibition): 89%
- TOV-112D cell proliferation inhibition ([2]; TAXOL 1 nM, after 72 hours): did not significantly inhibit
- cell proliferation reduced by ([3]; ID8, no AMD3100 pre-treatment, re-plated in TAXOL 0.005 μM 72 hr): 50%
- proliferation reduced by ([4]; control media, then TAXOL 1 nM 96 hr): 24%
- reduced ID8 colony formation by ([5]; TAXOL 5 nM): 56% and 57%
- reduced ID8 colony formation by ([5]; TAXOL 15 nM): 94%
- TOV-112D colony formation ([6]; TAXOL 5 nM): completely preventing
- reduced colony formation by ([6]; TOV-112D, TAXOL 1 nM alone, non-significant): 20%
- IC50 [7]: ≤ 3000 nM

Compound: Plerixafor octahydrochioride [AMD3100]
- CXCL12 expression reduced by ([8]; ID8 cells, AMD3100 10 μM): 9-10%
- overall expression of CXCL12, significance of change ([8]; ID8 cells): did not significantly alter
- CXCL12 expression reduced by ([8]; TOV-112D cells, AMD3100 5 μM): 5-7%
- overall expression of CXCL12, significance of change ([8]; TOV-112D cells): did not significantly alter
- CXCR4 reduced by ([9]; 4 hours): 13%
- CXCR4 reduced by ([9]; 18 hours): 4%
- surface expression of CXCR4, significance of change [9, 16]: did not significantly alter
- CXCR7 expression ([10]; AMD3100 5 μM, 18 hours, normalized): returned to basal levels
- CXCR7 expression increased by ([10]; AMD3100 5 μM, after 4 hours, normalized): 20%
- surface expression of CXCR7, significance of change [10, 16]: did not significantly alter
- CXCR7 expression increased by ([11]; AMD3100 10 μM, 4 or 18 hours, normalized): 6%-11
- surface expression of CXCR7, significance of change [11, 16]: did not significantly alter
- ID8 cell growth inhibition ([1]; AMD3100 10 μM alone, 72 hours): did not significantly inhibit
- limited cell growth by ([2]; TOV-112D cells, AMD3100 2.5 μM alone): 24.5%
- proliferated more than untreated cells ([3]; ID8, no pre-treatment, re-plated in AMD3100 10 μM media 72 hr, not significant): 22%
- proliferation reduced by, vs untreated control cells ([3]; ID8, pre-treated with AMD3100 72 hr, reseeded in AMD3100 10 μM 72 hr): 48%
- increased growth ([3]; ID8, treated with AMD3100 and then incubated without drug): 22%
- sensitization of cells to subsequent TAXOL by AMD3100 pre-treatment ([3]; ID8, vs untreated control cells then incubated with TAXOL): did not significantly sensitize
- sensitization of cells by AMD3100 pre-treatment [4]: did not significantly sensitize
- proliferation reduced by ([4]; AMD3100 5 μM 72 hr, then re-plated in AMD3100 96 hrs): 79.5%
- proliferation reduced by ([4]; AMD3100 5 μM 72 hr, then re-plated in control media 96 hrs): 49%
- proliferation reduced by ([4]; control media, then AMD3100 5 μM 96 hr): 51%
- sensitization of cells by AMD3100 pre-treatment ([4]; listed as AMD-3100): significantly sensitized
- decreased colony formation by ([5]; ID8, AMD3100 1 M (so in the source)): 16%
- decreased colony formation by ([5]; ID8, AMD3100 10 M (so in the source)): 44%
- colony formation ([6]; TOV-112D, AMD3100 2.5 μM): did not reduce colony formation
- animal survival compared to saline control [12]: modest benefit to survival
- animal survival compared to saline control [13]: modest benefit to survival
- expression of CXCR4 reduced by ([14]; 4 hours): 24.5%
- expression of CXCR4 reduced by ([14]; 18 hours): 23.5%
- surface expression of CXCR4, significance of change [14, 16]: did not significantly alter
- survival of the tumor bearing mice [15]: extends the survival

Source: patent publication US20190133998A1, “TREATMENT OF TUMORS WITH INHIBITORS OF CXCL12 SIGNALING AND SUBT[…] OF CHEMOTHERAPEUTIC AGENTS” (THE GENERAL HOSPITAL CORPORATION, priority 2016, published 2019)
